# In ChEMBL document CHEMBL5233269, “Anticancer potential of spirocompounds in medicinal chemistry: A pentennial expedition” (Eur J Med Chem, 2021):
# How the values were obtained:
# MCF7 [1] = experiment: Cytotoxicity against human MCF7 cells assessed as reduction in cell growth; type: functional, cell-based
# WI-38 = experiment: Cytotoxicity against human WI-38 cells assessed as reduction in cell growth; type: functional, cell-based
# [2] = system: Panel NCI-60 (60 carcinoma cell lines); experiment: Growth inhibition of human Panel NCI-60 (60 carcinoma cell lines) cells; type: functional
# HCT-116 [3] = experiment: Anticancer activity against human HCT-116 cells measured after 72 hrs by SRB assay; type: functional, cell-based; conditions: HCT-116, 72 h
# Mahlavu = experiment: Anticancer activity against human Mahlavu cells measured after 72 hrs by SRB assay; type: functional, cell-based
# Huh-7 = experiment: Anticancer activity against human Huh-7 cells measured after 72 hrs by SRB assay; type: functional, cell-based; conditions: Huh-7, 72 h
# MCF7 [4] = experiment: Anticancer activity against human MCF7 cells measured after 72 hrs by SRB assay; type: functional, cell-based; conditions: MCF7, 72 h
# Erythrocyte = experiment: Cytotoxicity against human Erythrocyte by MTT assay; type: functional, cell-based
# HBL = experiment: Cytotoxicity against human HBL cells by MTT assay; type: functional, cell-based
# A549 [5] = experiment: Cytotoxicity against human A549 cells by MTT assay; type: functional, cell-based
# MCF7 [6] = experiment: Cytotoxicity against human MCF7 cells by MTT assay; type: functional, cell-based
# MDA-MB-231 [7] = experiment: Cytotoxicity against human MDA-MB-231 cells by MTT assay; type: functional, cell-based
# Androgen receptor [8] = biological target: T1, Androgen receptor (Homo sapiens, UniProt P10275); experiment: Antagonist activity at androgen receptor (unknown origin) assessed as inhibition constant
# T1 sequence (P10275 whole entry): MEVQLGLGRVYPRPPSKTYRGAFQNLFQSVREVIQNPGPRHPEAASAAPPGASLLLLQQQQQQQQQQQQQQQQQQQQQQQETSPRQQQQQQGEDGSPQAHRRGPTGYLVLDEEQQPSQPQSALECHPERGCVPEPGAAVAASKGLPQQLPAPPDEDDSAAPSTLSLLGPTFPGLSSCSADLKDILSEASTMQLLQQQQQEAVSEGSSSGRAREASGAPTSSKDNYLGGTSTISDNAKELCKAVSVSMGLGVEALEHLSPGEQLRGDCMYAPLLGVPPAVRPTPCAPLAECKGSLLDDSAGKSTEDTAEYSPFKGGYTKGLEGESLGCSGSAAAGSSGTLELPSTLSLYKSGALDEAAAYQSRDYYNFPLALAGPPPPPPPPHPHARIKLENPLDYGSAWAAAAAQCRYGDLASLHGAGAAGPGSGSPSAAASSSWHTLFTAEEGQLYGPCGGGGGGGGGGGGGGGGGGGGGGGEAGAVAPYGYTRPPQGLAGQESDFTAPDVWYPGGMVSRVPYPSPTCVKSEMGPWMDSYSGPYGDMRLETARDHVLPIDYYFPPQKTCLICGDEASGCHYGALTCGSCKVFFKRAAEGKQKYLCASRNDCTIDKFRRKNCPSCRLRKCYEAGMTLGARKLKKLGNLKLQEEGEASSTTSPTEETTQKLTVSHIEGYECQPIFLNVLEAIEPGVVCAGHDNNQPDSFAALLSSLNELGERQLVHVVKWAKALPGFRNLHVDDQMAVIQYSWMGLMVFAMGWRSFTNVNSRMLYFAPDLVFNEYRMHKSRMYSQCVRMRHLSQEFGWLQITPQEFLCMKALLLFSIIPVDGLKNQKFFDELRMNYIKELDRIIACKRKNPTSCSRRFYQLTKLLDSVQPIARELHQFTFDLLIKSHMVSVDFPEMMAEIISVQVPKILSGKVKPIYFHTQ
# Androgen receptor [9] = biological target: T1, Androgen receptor; experiment: Antagonist activity at androgen receptor (unknown origin)
# HL-60 [10] = experiment: Induction of mitochondrial membrane potential loss in human HL-60 cells measured after 72 hrs by […] based flow cytometric analysis; type: functional, cell-based; conditions: HL-60, 72 h
# HL-60 [11] = experiment: Induction of mitochondrial membrane potential loss in human HL-60 cells measured after 72 hrs by TMRM dye based flow cytometric analysis; type: functional, cell-based; conditions: HL-60, 72 h
# HeLa [12] = experiment: Cytotoxicity against human HeLa cells assessed as reduction in cell viability; type: functional, cell-based
# MCF7 [13] = experiment: Cytotoxicity against human MCF7 cells assessed as reduction in cell viability; type: functional, cell-based
# MDA-MB-231 [14] = experiment: Antiproliferative activity against human MDA-MB-231 cells by MTT assay; type: functional, cell-based
# NCI-H460 = experiment: Growth inhibition of human NCI-H460 cells; type: functional, cell-based
# HepG2 = experiment: Anticancer activity against human HepG2 cells assessed as inhibition of cell growth; type: functional, cell-based
# HCT-116 [15] = experiment: Anticancer activity against human HCT-116 cells; type: functional, cell-based
# MCF7 [16] = experiment: Anticancer activity against human MCF7 cells assessed as inhibition of cell growth; type: functional, cell-based
# MCF7 [17] = experiment: Anticancer activity against human MCF7 cells assessed as reduction in cell proliferation; type: functional, cell-based
# CCRF-CEM = experiment: Anticancer activity against human CEM cells; type: functional, cell-based
# [18] = Anticancer activity against human BJ cells assessed as reduction in cell proliferation; type: toxicity, cell-based
# HeLa [19] = experiment: Anticancer activity against human HeLa cells assessed as reduction in cell proliferation; type: functional, cell-based
# MDA-MB-231 [20] = experiment: Antiproliferative activity against human MDA-MB-231 cells assessed as reduction in tumor cell proliferation; type: functional, cell-based
# MCF7 [21] = experiment: Cytotoxicity against human MCF7 cells incubated for 72 hrs by MTT assay; type: functional, cell-based; conditions: MCF7, 72 h
# A549 [22] = experiment: Cytotoxicity against human A549 cells incubated for 72 hrs by MTT assay; type: functional, cell-based; conditions: A549, 72 h
# [23] = Cytotoxicity against HEK293T cells incubated for 72 hrs by MTT assay; type: toxicity, cell-based, HEK-293T; conditions: human
# [24] = Cytotoxicity against human VA13 cells incubated for 72 hrs by MTT assay; type: toxicity, cell-based; conditions: VA13 (WI-38 VA13) cells
# Jurkat = experiment: Cytotoxicity against human Jurkat cells; type: functional, cell-based
smiles,measurement,setting,value
CN1C(=O)C2(SCC3C(=O)N(CC(=O)NN)N=C(c4ccc(Cl)c(Cl)c4)C32)c2ccccc21 (stereo not drawn),IC50,MCF7 [1],8.16 µM
same,IC50,WI-38,11.2 µM
C1=CC2=CC3CCCC4=Cc5ccccc5OC43OC2C=C1 (stereo not drawn),GI50,[2],< 10 µM
COC1=CC2OC34Oc5cc(OC)ccc5C=C3CCCC4C=C2C=C1 (stereo not drawn),GI50,[2],< 19 µM
CCNC(=O)[C@H]1[C@H](c2ccc([N+](=O)[O-])cc2)[C@@]2(C(=O)Cc3ccccc32)[C@H](CC(C)C)N1[C@H](c1ccccc1)[C@@H](O)c1ccccc1,IC50,HCT-116 [3],3.9 µM
same,IC50,Mahlavu,14.9 µM
same,IC50,Huh-7,8.2 µM
same,IC50,MCF7 [4],4.8 µM
Cc1ccc2c(c1)C1(CC(=O)C=NO1)C(=O)N2 (stereo not drawn),IC50,Erythrocyte,> 100 µM
same,IC50,HBL,> 100 µM
same,IC50,A549 [5],13.2 µM
same,IC50,MCF7 [6],> 30 µM
same,IC50,MDA-MB-231 [7],0.34 µM
COC(=O)c1ccc(C2C(=S)N(c3ccc(C#N)c(C(F)(F)F)c3)C(=O)[C@]23CCOC3)cc1F (stereo partly drawn),Ki,Androgen receptor [8],0.0056 µM
same,IC50,Androgen receptor [9],0.033 µM
CN1N=C(c2ccc(Cl)c(Cl)c2)C2C(CSC23CCCN3CCOCC(=O)NN)C1=O (stereo not drawn),IC50,MCF7 [1],7.72 µM
same,IC50,WI-38,10.4 µM
O=C1CS/C(=C\C2c3ccccc3Nc3ccccc32)N1N(c1ccccc1)c1ccccc1,IC50,HL-60 [10],32.2 µM
same,IC50,HL-60 [11],25.9 µM
Cc1ccc2[nH]c3c(c2c1)CC1(C3=O)C(c2ccc(F)cc2)C2CSCN2C12C(=O)Nc1ccccc12 (stereo not drawn),IC50,HeLa [12],79 µM
same,IC50,MCF7 [13],19.4 µM
N#CC1=C(c2ccccc2)Nc2c(c(-c3cccs3)nn2-c2ccccc2)C12C(=O)Nc1ccccc12 (stereo not drawn),IC50,MDA-MB-231 [14],6.7 µM
COc1ccc(/C=N/N2C(=O)C(C#N)=CC23c2ccccc2NC2C=CC=CC23)cc1 (stereo not drawn),IC50,NCI-H460,0.12 µM
O=C1Nc2ccccc2C12CC(c1cn(S(=O)(=O)c3ccc(Cl)cc3)c3ccccc13)=NN2 (stereo not drawn),IC50,HepG2,19.2 µg/mL
same,IC50,HCT-116 [15],20.5 µg/mL
same,IC50,MCF7 [16],5.8 µg/mL
Cc1ccc2[nH]c3c(c2c1)CC1(C3=O)C(c2cccc3ccccc23)C2CSCN2C12C(=O)Nc1ccccc12 (stereo not drawn),IC50,HeLa [12],24.4 µM
same,IC50,MCF7 [13],32.6 µM
CC1CO[C@@]2(O[C@H]3CC4C5CC[C@@H]6C[C@@H](O)CC[C@]6(C)C5CC(=O)[C@]4(C)[C@H]3[C@@H]2C)/C(=C/c2ccccc2)C1 (stereo partly drawn),IC50,MCF7 [17],19.9 µM
same,IC50,CCRF-CEM,23.2 µM
same,IC50,[18],45.3 µM
same,IC50,HeLa [19],35.7 µM
O=C1N(C2CCCCC2)C(=O)C2(CC(c3ccccc3O)=NCCN2)N1C1CCCCC1 (stereo not drawn),IC50,MDA-MB-231 [20],44.6 µM
CN1C[C@H](c2ccc(Cl)cc2)[C@]2(NC(=O)NC2=O)C12C(=O)Nc1ccc(Br)cc12 (stereo partly drawn),IC50,MCF7 [21],24.1 µM
same,IC50,A549 [22],6.6 µM
same,IC50 at 72 h,[23],9.2 µM
same,IC50 at 72 h,[24],11.9 µM
O=C(/C=C1\CC(=O)N(c2ccc(Cl)cc2)C1=O)Nc1ccc(Cl)cc1,IC50,Jurkat,33.5 µM
